ChEMBL document CHEMBL4765305, “Elephantopinolide A-P, germacrane-type sesquiterpene lactones from Elephantopus scaber induce apoptosis, autophagy and G2/M phase arrest in hepatocellular carcinoma cells” (Eur J Med Chem, 2020)

How the values were obtained:
[1] = tested on: Hep 3B2; assay: Anti-hepatoma activity against human Hep3B cells assessed as cell growth inhibition by MTT assay; assay type: functional, cell-based
[2] = tested on: HepG2; assay: Anti-hepatoma activity against human HepG2 cells assessed as cell growth inhibition by MTT assay; assay type: functional, cell-based

| IC50 [2] [µM] | SMILES | IC50 [1] [µM] |
| --- | --- | --- |
| 8.35 | C=C1C(=O)O[C@H]2[C@H]1[C@@H](OC(=O)/C(C)=C\C)CC1=C[C@H](CC(=C)[C@H]2O)OC1=O | 8.16 |
| > 20 | C=C(C)C(=O)O[C@H]1CC2=C[C@@H](C[C@@](C)(O)/C=C/[C@@H]1C(=C)C(=O)OC)OC2=O | > 20 |
| > 20 | C=C(C(=O)OC)[C@H]1/C=C/[C@](C)(O)C[C@@H]2C=C(C[C@@H]1OC(=O)/C(C)=C\C)C(=O)O2 | > 20 |
| > 20 | C=C1C(=O)O[C@H]2CC3=C[C@@H](C[C@@](C)(O)/C=C/[C@H]12)OC3=O | > 20 |
| 5.99 | C=C1C(=O)O[C@H]2[C@H]1[C@@H](OC(=O)/C(C)=C\C)CC1=C[C@@H](C[C@@]3(C)O[C@@H]23)OC1=O | 3.74 |
| 2.97 | C=C1C(=O)O[C@H]2[C@H]1[C@@H](OC(=O)/C(C)=C\C)CC1=C[C@H](C[C@@]3(C)O[C@@H]23)OC1=O | 7.14 |
| 2.55 | C=C(C)C(=O)O[C@H]1CC2=C[C@H](C[C@@]3(C)O[C@H]3[C@H]3OC(=O)C(=C)[C@@H]31)OC2=O | 4.26 |
| > 20 | C/C=C(\C)C(=O)O[C@H]1CC2=C[C@@H](C/C(C)=C/[C@H]3OC(=O)C(CO)=C13)OC2=O | > 20 |
| > 20 | COC[C@@H]1C(=O)O[C@H]2[C@H]1[C@@H](O)CC1=C[C@H](C[C@@]3(C)O[C@@H]23)OC1=O | > 20 |
